According to US20220177476A1, “Crystal Forms of (S)-4-(8-amino-3-(1-(but-2-ynoyl)-pyrrolidin-2-yl)imidazo[1,5-a]pyrazin-1-yl)-n-(pyridin-2-yl)benzamide” (Acerta Pharma B.V., priority 2015, published 2022):
In brackets after ≈: the same amount, converted by molar mass.

Key:
[1] = Approximate solubility of Form I by stepwise dilution of a suspension; format: physicochemical; details: thermodynamic from solid, read-out: Solubility [S, mg/mL]
Procedure: Form I was also tested with respect to solubilities in various water-solvent mixtures and non-aqueous solvents. Solubility studies were conducted by a stepwise dilution of a suspension of about 10 mg of Form I in 0.1 mL of analytical grade solvent. Solubility values are estimated approximations and are subject to variable experimental error.

[2] = Aqueous solubility after equilibrating at 25° C. for three days (HPLC); format: physicochemical; details: water, 25° C., three days
Procedure: Finally, Form II was tested with respect to solubilities in various water-solvent mixtures and non-aqueous solvents. […] High-performance liquid chromatography (HPLC) was used to determine the concentration of Form II in the filtered solution at approximately 14 μg/mL, which translates into a critical water activity (aw) of about 0.59.

[3] = Dynamic vapor sorption (DVS); format: physicochemical; details: DVS
Procedure: A gravimetric vapor sorption study was run using a standard procedure. Samples were run using a dynamic vapor sorption (DVS) analyzer. Sample sizes were approximately 10 mg. A moisture adsorption-desorption isotherm was performed as outlined below.

[4] = Solubility of Form I by HPLC in solvents and water-solvent mixtures; format: physicochemical; details: for solubility: organic solvent or mixture, thermodynamic from solid, read-out: Solubility (S, mg/mL)
Procedure: The solubility of recrystallized Formula (1) Form I was tested in various water-solvent mixtures and non-aqueous solvents.

[5] = Intrinsic dissolution rate (paddle over stationary disc); format: physicochemical
Procedure: The intrinsic dissolution rate (IDR) was measured for Forms I and II of the free base of Formula (1). IDR was measured using a paddle over stationary disc equipped dissolution apparatus with concentration determined using liquid chromatographic analysis against a standard. […] Form I has an IDR of 6.8 mg/cm^2/min in simulated gastric fluid (SGF) (pH 1.2) and an IDR of 0.44 mg/cm^2/min in pH 2.5 HCl/NaCl buffer. Form II has an IDR of 5.4 mg/cm^2/min in SGF and an IDR of 0.35 mg/cm^2/min in pH 2.5 HCl/NaCl buffer.

[6] = Plasma exposure after single oral administration in fasted beagle dogs; format: in vivo; details: nine fasted beagle dogs, single oral administration of 6 mg/kg, oral capsule
Procedure: The plasma exposure of Forms I and II of the free base of Formula (1) were compared in nine fasted beagle dogs after a single oral administration of 6 mg/kg of either form using batches with a similar particle size distribution. The experiment was performed in 5 weekly phases, with the Form II phase last. […] There was a good in vitro in vivo correlation for the dissolution rates of Form 1 and Form II, and the performance of each form of Formula (1) when delivered by oral capsule to dogs.

[7] = Human Phase 1 interaction study of calcium carbonate, omeprazole, or rifampin on Formula (1); format: in vivo; details: healthy adult subjects, acid reducing agents prior to administration
[8] = Relative stability of solid forms (water activity, suspension equilibration, storage); format: physicochemical
From the text: Critical water activity is a measure of the relative thermodynamic stability of Form I in comparison to the trihydrate Form II. […] Suspension equilibration experiments in ethanol-water mixtures, each having a different water activity, affirmed this conclusion. Water activities included in the experiments were maintained at: about 0.35 (ethanol-water ratio of 95:5, PP502-P32), about 0.53 (ethanol-water ratio of 9:1, PP502-P33) and about 0.77 (ethanol-water ratio of 7:3, PP502-P34).
Because the DVS results of Form II indicate reversible moisture sorption-desorption behavior (see above), tests were performed to confirm that storage of the dehydrated Form II sample (i.e., Form IV) at about 60% RH would again lead to the trihydrate form (Form II). […]

CC#CC(=O)N1CCC[C@H]1c1nc(-c2ccc(C(=O)Nc3ccccn3)cc2)c2c(N)nccn12 [Form I, (S)-4-(8-amino-3-(1-(but-2-ynoyl)pyrrolidin-2-yl)imidazo[1,5-α]pyrazin-1-yl)-N-(pyridin-2-yl)benzamide]
solubility ([1]; 2-propanol, organic solvent or mixture): < 1 mg/mL | solubility ([1]; MEK saturated with water, organic solvent or mixture): 26 to 30 mg/mL (≈ 55.9 to 64.4 mM) | solubility ([1]; THF:water 9:1, organic solvent or mixture): > 50 mg/mL | solubility ([1]; acetic acid, organic solvent or mixture): 102 to 204 mg/mL (≈ 219 to 438 mM) | solubility ([1]; acetic acid:MEK 1:9, organic solvent or mixture): 63 to 95 mg/mL (≈ 135 to 204 mM) | solubility ([1]; acetic acid:ethyl acetate 1:1, organic solvent or mixture): 92 to 184 mg/mL (≈ 198 to 395 mM) | solubility ([1]; acetic acid:ethyl acetate 1:9, organic solvent or mixture): 60 to 90 mg/mL (≈ 129 to 193 mM) | solubility ([1]; acetic acid:isopropanol 1:9, organic solvent or mixture): ~4 mg/mL (≈ 8.59 mM) | solubility ([1]; acetic acid:water 1:1, aqueous with cosolvent or surfactant or cyclodextrin): 104 to 208 mg/mL (≈ 223 to 447 mM) | solubility ([1]; acetone, organic solvent or mixture): ~2 mg/mL (≈ 4.3 mM) | solubility ([1]; acetone:water 4:1, organic solvent or mixture): 26 to 31 mg/mL (≈ 55.9 to 66.6 mM) | solubility ([1]; acetonitrile, organic solvent or mixture): < 1 mg/mL | solubility ([1]; ethanol, organic solvent or mixture): ~3 mg/mL (≈ 6.44 mM) | solubility ([1]; ethanol:water 1:1, aqueous with cosolvent or surfactant or cyclodextrin): ~6 mg/mL (≈ 12.9 mM) | solubility ([1]; ethanol:water 95:5, organic solvent or mixture): ~8 mg/mL (≈ 17.2 mM) | solubility ([1]; ethyl acetate, organic solvent or mixture): < 1 mg/mL | solubility ([1]; formic acid, organic solvent or mixture): 97 to 194 mg/mL (≈ 208 to 417 mM) | solubility ([1]; methanol, organic solvent or mixture): ~14 mg/mL (≈ 30.1 mM) | solubility ([1]; methanol:water 9:1, organic solvent or mixture): ~15 mg/mL (≈ 32.2 mM) | solubility ([1]; organic solvent or mixture, 2-butanone, MEK): < 1 mg/mL | solubility ([1]; organic solvent or mixture, N,N-dimethylformamide, DMF): 49 to 65 mg/mL (≈ 105 to 140 mM) | solubility ([1]; organic solvent or mixture, N-methyl-2-pyrrolidone, NMP): 39 to 49 mg/mL (≈ 83.8 to 105 mM) | solubility ([1]; organic solvent or mixture, dichloromethane, DCM): 36 to 43 mg/mL (≈ 77.3 to 92.4 mM) | solubility ([1]; organic solvent or mixture, dimethyl sulfoxide, DMSO): 39 to 49 mg/mL (≈ 83.8 to 105 mM) | solubility ([1]; organic solvent or mixture, ethanol:water 9:1 at 60° C.): > 60 mg/mL | solubility ([1]; organic solvent or mixture, methanol:MEK 1:1 at reflux): > 90 mg/mL | solubility ([1]; organic solvent or mixture, tetrahydrofuran, THF): ~5 mg/mL (≈ 10.7 mM) | solubility ([1]; trifluoroethane, organic solvent or mixture): 97 to 194 mg/mL (≈ 208 to 417 mM) | solid residue after aqueous solubility test (PXRD) [2]: Form I was retained | hygroscopicity (DVS), in words [3]: not hygroscopic | total weight gain observed between 0% RH and 80% RH [3]: about 0.17% | water content at 50% RH [3]: approximately 0.25% | water absorption within the timeframe of the test ([3]; at 95% RH): less than 0.3% | hygroscopicity according to the European Pharmacopoeia (EP) classification ([3]; weight increase at 80% RH): non-hygroscopic (non-hygroscopic: <0.2%) | maximum water content (saturation) at about 95% RH ([3]; listed as recrystallized Formula (1)): approximately 0.5% | Solubility (S, mg/mL) ([4]; 1-propanol, 25° C.): 4.0 mg/mL (≈ 8.59 mM) | Solubility (S, mg/mL) ([4]; ethyl acetate, 25° C.): 1.5 mg/mL (≈ 3.22 mM) | solubility ([4]; 1-propanol, 5° C.): 3.4 mg/mL (≈ 7.3 mM) | solubility ([4]; 1-propanol, 60° C.): 14.4 mg/mL (≈ 30.9 mM) | solubility ([4]; 1-propanol, r.t.): 4.7 mg/mL (≈ 10.1 mM) | solubility ([4]; 2-propanol, 25° C.): 1.3 mg/mL (≈ 2.79 mM) | solubility ([4]; MEK, 25° C.): 3.7 mg/mL (≈ 7.95 mM) | solubility ([4]; THF, 25° C.): 20.4 mg/mL (≈ 43.8 mM) | solubility ([4]; acetone at RFT): 10 mg/mL (≈ 21.5 mM) | solubility ([4]; acetone, 25° C.): 4.1 mg/mL (≈ 8.81 mM) | solubility ([4]; ethanol, 5° C.): 3.6 mg/mL (≈ 7.73 mM) | solubility ([4]; ethanol, 25° C.): 4.4 mg/mL (≈ 9.45 mM) | solubility ([4]; ethanol, 50° C.): 10.2 mg/mL (≈ 21.9 mM) | solubility ([4]; ethanol-water 9:1, 25° C.): 23.7 mg/mL (≈ 50.9 mM) | solubility ([4]; ethanol-water 96:4, 0° C.): 6.7 mg/mL (≈ 14.4 mM) | solubility ([4]; ethanol-water 96:4, 25° C.): 10 mg/mL (≈ 21.5 mM) | solubility ([4]; ethanol-water 96:4, 60° C.): 24.7 mg/mL (≈ 53.1 mM) | solubility ([4]; methanol, 25° C.): 19.9 mg/mL (≈ 42.7 mM) | increase in IDR relative to Form II ([5]; at both conditions (SGF and pH 2.5 buffer)): ~26% | intrinsic dissolution rate (IDR) ([5]; pH 2.5 HCl/NaCl buffer): 0.44 mg/cm^2/min | intrinsic dissolution rate (IDR) ([5]; simulated gastric fluid (SGF) (pH 1.2)): 6.8 mg/cm^2/min | exposure [6]: higher exposure in the beagle than Form II | exposure after treatment with acid reducing agents [7]: significant decreases in exposure | form recovered after suspension equilibration in methanol ([8]; 5° C., methanol, mixture of Forms (I), VI, and VII, five days): pure Form I was recovered | relative thermodynamic stability of Form I and Form II ([8]; room temperature, depending on water activity): Below an aw of about 0.59, Form I is more stable
